Results on 1 molecule are retold here after PMC13136073, “Discovery of 4‐Quinazolinone‐Containing Phenylalanine Derivatives as Potent, Resistant‐Tolerant HIV Capsid Inhibitors” (MedComm, 2026).

The data set can be described thus: Stability in human liver microsomes. Conditions: HLM, scaled. The class given is in vitro ADME. (Liver microsomes are vesicles of endoplasmic reticulum, rich in cytochrome P450 enzymes.)

Structures are written as SMILES.

Regarding `O=C(O)Cc1ccccc1Nc1c(Cl)cccc1Cl` [Diclofenac, diclofenac], the “CLint(liver)” value is given as 200.0 mL/min/kg.
